Experimental findings from ChEMBL document CHEMBL1137602, “Synthesis of aromatic compounds containing a 1,1-dialkyl-2-trifluoromethyl group, a bioisostere of the tert-alkyl moiety” (Bioorg Med Chem Lett, 2007) are described below.

The structures appear in SMILES notation.

Data set [1] has as its target Transient receptor potential cation channel subfamily V member 1 (Homo sapiens, UniProt Q8NER1). The experiment in a line: Antagonist activity at human TRPV1 receptor. In kind it is functional.
A short description of data set [2]: Intrinsic clearance in human liver microsomes. In kind it is ADME, Microsome.
In the next data set the test system is Liver microsomes. The experiment in a line: Metabolic stability in human liver microsomes. In kind it is ADME, Microsome. A general note: Liver microsomes are vesicles of endoplasmic reticulum, rich in cytochrome P450 enzymes.

Sequence of Transient receptor potential cation channel subfamily V member 1 (Q8NER1 whole entry): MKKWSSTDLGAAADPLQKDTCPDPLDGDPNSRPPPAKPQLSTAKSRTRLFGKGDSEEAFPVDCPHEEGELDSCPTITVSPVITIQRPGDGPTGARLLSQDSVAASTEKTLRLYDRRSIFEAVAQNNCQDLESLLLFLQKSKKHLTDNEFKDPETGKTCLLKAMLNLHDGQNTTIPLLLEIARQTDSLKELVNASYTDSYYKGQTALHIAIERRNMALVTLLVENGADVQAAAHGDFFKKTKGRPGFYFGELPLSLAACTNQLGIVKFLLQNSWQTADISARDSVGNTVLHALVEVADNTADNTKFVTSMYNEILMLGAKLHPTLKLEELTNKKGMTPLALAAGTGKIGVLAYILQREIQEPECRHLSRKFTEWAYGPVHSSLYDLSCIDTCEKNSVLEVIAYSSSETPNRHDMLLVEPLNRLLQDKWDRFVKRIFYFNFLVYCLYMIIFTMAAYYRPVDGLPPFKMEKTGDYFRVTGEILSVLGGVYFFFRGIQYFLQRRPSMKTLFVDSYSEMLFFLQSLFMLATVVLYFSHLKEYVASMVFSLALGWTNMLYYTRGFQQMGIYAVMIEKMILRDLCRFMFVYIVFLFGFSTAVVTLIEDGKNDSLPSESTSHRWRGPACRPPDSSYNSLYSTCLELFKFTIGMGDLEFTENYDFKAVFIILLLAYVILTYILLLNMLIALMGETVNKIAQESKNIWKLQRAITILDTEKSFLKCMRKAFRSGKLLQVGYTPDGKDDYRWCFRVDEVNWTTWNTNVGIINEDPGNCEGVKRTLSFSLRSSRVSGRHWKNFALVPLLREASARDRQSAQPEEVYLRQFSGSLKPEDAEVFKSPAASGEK

On to `O=C(Nc1ccc(C(F)(F)F)cc1)c1ccc(-c2ncccc2Cl)cc1`, for which the IC50 – broadly, the midpoint of a concentration-inhibition curve – in data set [1] worked out at 0.2 µM. In data set [2], the CLint scaled – broadly, the rate of metabolic loss divided by the concentration – was under 10.5 mL/min/kg.
Taken in the same sequence, the figures for `CC(C)(C)c1ccc(NC(=O)c2ccc(-c3ncccc3Cl)cc2)cc1` were 0.037 µM and 168 mL/min/kg.
Molecule `CC(C)(c1ccc(NC(=O)c2ccc(-c3ncccc3Cl)cc2)cc1)C(F)(F)F` came in with an IC50 in data set [1] of 0.042 µM. The molecule also returned a CLint scaled in data set [2] of 46 mL/min/kg. Further, in the data set with Liver microsomes, the outcome was Active.
For `COc1ccc(C(C)(C)C(F)(F)F)cc1CN[C@H]1CCCN[C@H]1c1ccccc1`, in data set [2], the microsomal CLint (usually the capacity of the preparation to metabolise the compound, expressed as a volume cleared per time) came to 44.7 µL/min/mg. Besides, the outcome in the data set with Liver microsomes was Active.
`COc1ccc(C(C)(C)C)cc1CN[C@H]1CCCN[C@H]1c1ccccc1` returned a microsomal CLint in data set [2] of 87.9 µL/min/mg.
